# From patent US6331555A, “Treatment of platelet derived growth factor related disorders such as cancers” (priority 1999, dated 2001)
# Where two headings read alike, the source gives them in different places.
# How the values were obtained:
# in vivo = settings: mouse, ip
# Method: The LD50 was calculated from a plot of % mortality versus dose (log M) using a four parameter logistic equation.
# HER2 = test: Receptor tyrosine kinase inhibition, HER2; assay type: cell-based; settings: for IC50: read-out: HER2 IC50
# Method: (§1) For western blotting, cells were plated in 2 mL growth medium into 6-well dishes (500,000 cells per well) and allowed to attach overnight. The medium was replaced with 2 mL MCDB 105 (UCSF Cell Culture Facility) supplemented with 1% FBS. The plates were then incubated overnight at 37° C., ambient CO2. […] After a 7 min incubation at room temperature with ligand, the plates were put on ice and washed three times with 1 mL ice-cold PBS plus 1 mM orthovanadate. Lysis was achieved by pipetting cells in 0.5 mL of buffer containing 50 mM Tris, pH 7.4, 10% glycerol, 1% NP-40, 2 mM EDTA, 1 mM sodium vanadate (Na3 VO4), 10 mM pyrophosphate, 1 mM PMSF, […]. A 300 μL aliquot of each lysate was immediately added to 100 μL 4×Laemmli sample buffer ([…] Tris pH 6.9, 20% glycerol, 7% SDS, 5 mM EDTA, 5% β-mercaptoethanol) containing phosphatase inhibitors, 2 mM Na3 VO4 and 10 mM pyrophosphate. Samples were boiled for 5 min, frozen in dry ice-ethanol, and stored at -80° C. Proteins were resolved by SDS-PAGE (Bio-Rad Miniprotean II) and transferred to nitrocellulose membrane (Schleicher & Schuell) at 120 volts for 1 hr at room temperature in buffer containing 25 mM Tris pH 8.3, 20% methanol, 0.2 M glycine, 0.1% SDS. The integrity of the protein-to-membrane transfer was determined by staining with 1% Ponceau S in 5% acetic acid for 5 min. After destaining in several distilled water rinses, the membrane was soaked overnight in blocking buffer containing 5% milk in Tris-buffered saline, 0.05% Tween 20. Phosphotyresine was detected by incubating the membrane (1 hr at room temperature) with an anti-phosphotyosine antiserum diluted in blocking buffer at 1:3000. For C6 cells, PDGF-β receptor content in the lysates was confirmed in duplicate sample lanes by western blotting using an antibody specific for PDGF-β receptor (UBI). The antibodies were visualized using ECL reagent from Amersham and by exposure to Fuji RX film.
# For ELISA assays, cells were grown to 80-90% confluency in growth medium and seeded in 96-well tissue culture plates in 0.5% serum at 25,000 to 30,000 cells per well. After overnight incubation in 0.5% serum-containingmedium, cells were changed to serum-free medium and treated with test compound for 2 hr in a 5% CO2, 37° C. incubator. Cells were then stimulated with ligand for 5-10 min followed by lysis with HNTG (20 mM Hepes, 150 mM NaCl, 10% glycerol, 5 mM EDTA, 5 mM Na3 VO4 0.2% Triton X-100, and 2 mM NaPyr). Cell lysates (0.5 mg/well in PBS) were transferred to ELISA plates previously coated with receptor-specific antibody and which had been blocked with 5% milk in TBST (50 mM Tris-HCl pH 7.2, 150 mM NaCl and 0.1% Triton X-100) at room temperature for 30 min. Lysates were incubated with shaking for 1 hr at room temperature. The plates were washed with TBST four times and then incubated with polyclonol anti-phosphotyrosine antibody at room temperature for 30 min. Excess anti-phosphotyrosine antibody was removed by rinsing the plate with TBST four times. Goat anti-rabbit IgG antibody was added to the ELISA plate for 30 min at room temperature followed by rinsing with TBST four more times.
# (§2) The ability of different compound to inhibit different receptor tyrosine kinases was tested.
# physchem = test: physchem
# Text: PBTE consists of a solution of 3% w/v benzyl alcohol, 8% w/v polysorbate 80, and 65% w/v polyethylene glycol (MW=300 daltons) in absolute ethanol. PBTE:D5W consists of PBTE diluted 1:1 in a solution of 5% dextrose in water. […] The solubility of the other compounds described herein can be obtained using standard techniques.
# PDGFR = PDGFR (Homo sapiens, UniProt P09619); test: Receptor tyrosine kinase inhibition, PDGFR; assay type: cell-based; design: U1242 (PDGF-β receptor); host or cells: U1242 glioma cells (ELISA); settings: read-out: PDGFR IC50
# Chain of PDGFR (P09619 33-1106): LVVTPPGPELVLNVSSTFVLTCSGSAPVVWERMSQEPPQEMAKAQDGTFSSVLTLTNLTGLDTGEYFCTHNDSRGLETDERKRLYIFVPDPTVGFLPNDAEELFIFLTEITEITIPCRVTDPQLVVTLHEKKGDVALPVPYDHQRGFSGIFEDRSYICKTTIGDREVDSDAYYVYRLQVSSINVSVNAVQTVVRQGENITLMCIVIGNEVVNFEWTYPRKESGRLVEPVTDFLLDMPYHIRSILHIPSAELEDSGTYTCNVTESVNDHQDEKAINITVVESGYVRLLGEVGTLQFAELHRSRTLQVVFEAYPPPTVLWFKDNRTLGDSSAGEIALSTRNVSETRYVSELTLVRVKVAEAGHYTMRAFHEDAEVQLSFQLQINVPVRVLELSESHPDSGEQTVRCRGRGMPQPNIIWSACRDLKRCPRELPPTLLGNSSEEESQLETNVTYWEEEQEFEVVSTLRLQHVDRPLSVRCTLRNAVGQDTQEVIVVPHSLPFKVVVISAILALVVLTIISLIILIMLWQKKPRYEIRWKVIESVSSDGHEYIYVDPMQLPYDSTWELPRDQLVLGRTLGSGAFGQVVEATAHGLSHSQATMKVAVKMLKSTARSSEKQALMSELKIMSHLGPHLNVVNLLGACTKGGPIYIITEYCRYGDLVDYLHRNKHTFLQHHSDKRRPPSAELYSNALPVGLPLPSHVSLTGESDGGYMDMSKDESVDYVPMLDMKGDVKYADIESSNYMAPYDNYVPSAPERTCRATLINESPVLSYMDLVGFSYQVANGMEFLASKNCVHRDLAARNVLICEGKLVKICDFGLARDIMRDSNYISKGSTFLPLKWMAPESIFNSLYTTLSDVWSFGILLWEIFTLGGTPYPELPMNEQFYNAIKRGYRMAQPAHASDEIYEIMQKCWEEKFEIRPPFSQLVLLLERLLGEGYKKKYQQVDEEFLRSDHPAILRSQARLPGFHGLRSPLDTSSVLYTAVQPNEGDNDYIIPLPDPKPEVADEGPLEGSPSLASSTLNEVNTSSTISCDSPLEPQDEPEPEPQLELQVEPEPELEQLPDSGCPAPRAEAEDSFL
# Method: as §1, with “The medium was replaced with 2 mL MCDB 105 (UCSF Cell Culture Facility) supplemented with 1% FBS.” left out, “Proteins were resolved by SDS-PAGE (Bio-Rad Miniprotean II) and transferred to nitrocellulose membrane (Schleicher & Schuell) at 120 volts for 1 hr at room temperature in buffer containing 25 mM Tris pH 8.3, 20% methanol, 0.2 M glycine, 0.1% SDS.” left out, “For C6 cells, PDGF-β receptor content in the lysates was confirmed in duplicate sample lanes by western blotting using an antibody specific for PDGF-β receptor (UBI).” left out
# For ELISA assays, cells were grown to 80-90% confluency in growth medium and seeded in 96-well tissue culture plates in 0.5% serum at 25,000 to 30,000 cells per well. After overnight incubation in 0.5% serum-containingmedium, cells were changed to serum-free medium and treated with test compound for 2 hr in a 5% CO2, 37° C. incubator. […] Lysates were incubated with shaking for 1 hr at room temperature. The plates were washed with TBST four times and then incubated with polyclonol anti-phosphotyrosine antibody at room temperature for 30 min. Excess anti-phosphotyrosine antibody was removed by rinsing the plate with TBST four times. Goat anti-rabbit IgG antibody was added to the ELISA plate for 30 min at room temperature followed by rinsing with TBST four more times.
# as §2
# PDGF-R (U1242) = target: T1, PDGF-R (U1242) (Homo sapiens, UniProt P09619); test: U1242 kinase (PDGF-R activity); assay type: cell-based
# T1 construct: U1242 (PDGF-β receptor); host or cells: U1242 MG glioma cells
# T1 sequence (P09619 33-1106): as above
# How it was run: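 For ELISA, cells were held overnight in 0.5% serum, then treated with compound for 2 h at 37 °C in serum-free medium. Lysate phosphotyrosine was detected with polyclonal anti-phosphotyrosine antibody. In western blots, cells were stimulated with ligand for 7 min at room temperature and probed with anti-phosphotyrosine (1:3000).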
# [1] = W = done in Western assay, read-out: U1242 KINASE IC50 (W)
Compound,HER2 phosphorylation (HER2),IC50 (PDGFR) [µM],IC50 (HER2) [µM],IC50 (PDGF-R (U1242); [1]) [µM],also measured
"Cc1oncc1C(=O)Nc1ccc(C(F)(F)F)cc1 [Compound A10, 5-methylisoxazole-4 carboxylic acid-(4-trifluromethyl)-anilide]",little if any effect on EGF-receptor or HER2 phosphorylation,,,,"LD50 (in vivo): 145 mg/kg; solubility (physchem; pbte, organic solvent or mixture): ~60 mg/mL; solubility (physchem; pbte:d5w): ~5 mg/mL; solubility in water (physchem; water): not very soluble in water"
N#CC(=Cc1c[nH]c2ccccc12)c1[nH]nc(N)c1C#N [Compound D14],do not effect EGF or HER2 phosphorylation,47,> 50,,
COc1cc2ncc(-c3ccccc3)nc2cc1OC [Compound G14],do not effect EGF or HER2 phosphorylation,,,0.8,
Cc1cc2ncc(-c3ccccc3)nc2cc1C [Compound G13],do not effect EGF or HER2 phosphorylation,,> 50,,
O=c1c2ccccc2nc(C=Cc2ccc(O)c(O)c2)n1CCO [Compound F10],,,,45,
c1ccc(-c2cnc3cc4ccccc4cc3n2)cc1 [Compound G22],,14,> 50,0.9,IC50 (PDGF-R (U1242); read-out: U1242 KINASE IC50): 14 µM
